How the values were obtained:
[1] = test system: Human squamous carcinoma A431 cells; test: Doxorubicin sensitivity of A431 cells after transfection with full-length CUDR or CUDR antisense oligonucleotides (MTT assay); type: cell-based; settings: plasmid 24 h or oligonucleotides 4 h, then DOX for 48 h
Description: The role of CUDR in sensitivity of cells to doxorubicin was examined. Human squamous carcinoma A431 cells were transfected with either plasmid carrying the full-length CUDR cDNA or antisense oligonucleotides of CUDR. The cells were seeded in a 96-well plate for 4 h before incubation with full-length CUDR plasmid DNA for 24 h or CUDR oligonucleotides for 4 h. After transfection, the cells were incubated with DOX for 48 h. The cell survival was measured by MTT assay. Furthermore, the CUDR mRNA level after transfection was examined by Northern blot analysis.
In FIG. 4A, ---o--- (C): cells without transfection; -▪- (CUDR): cells transfected with full length CUDR. In FIG. 4B, ---o--- (C): Cells without transfection treatment; -●- (S): transfection with sense CUDR oligonucleotides; -▪- (AS): transfection with CUDR antisense oligonucleotides.
Antisense sequence for CUDR was: 5′-[…]-3′ (nt1347-1367) (SEQ ID NO:9) and the sequence for the sense oligonucleotides was complementary to that of the antisense.

[2] = test system: stable CUDR transfectant of A431 cells; test: Response of stable CUDR transfectants of A431 cells to DOX and Taxol by MTT assay; type: cell-based, human; settings: CUDR transfectants versus A431 cells transfected with empty vector; drug for 5 days; FIGS. 5A and 5C
Description: (§1) A431 cells were transfected with a vector carrying the full-length CUDR cDNA or an empty vector. After transfection, the cells were selected with G418 and individual colony was picked for establishment as stable transfectants. The stable transfectants were maintained in culture supplemented with G418. The response of cells to drugs was measured by both MTT assay and DNA fragmentation assay.
For the MTT assay, the cells were seeded in a 96-well plate for 2 days and incubated with various concentrations of DOX or Taxol for 5 days. At the end of the incubation, the cells were incubated with 50 μl of a 0.1 mg/ml solution of 3-[4,5-dimethylthiaol-2-yl]-2,5-diphenyltetrazolium bromide (MTT) at 37° C. for 3 h and lysed in 150 μl of dimethyl sulfoxide at room temperature for 30 min. The absorbance of each well was measured at 580 nm in a microplate reader. The percentage of cell survival was calculated as the ratio between cells with drug treatment and cells without drug treatment. The MTT results for DOX and Taxol were shown in FIGS. 5A and 5C respectively. ◯: control cells, i.e. A431 cells transfected with empty vector; ▴: stable CUDR transfectant of A431 cells. Error bar: standard deviation.

[3] = test system: A431 parent cells, A5A and A10A cells; test: Response of A431 sublines to doxorubicin by MTT assay; type: cell-based, human; settings: A431/A5A and A10A cells versus A431 parent cells; incubated with drug for 5 days; FIG. 1
Description: Responses of A431 parent cells, A5A and A10A cells to doxorubicin (DOX) were compared in this Example.
A431/A5A cells were A431 cells survived from treatment with 5 μg/ml of DOX, and A10A cells were derived from A5A cells survived from treatment with 10 μg/ml of DOX.
Cells were seeded in 96-well plates for 2 days and incubated with various concentrations of DOX for 5 days. At the end of the incubation, the cells were incubated in 50 μl of a 0.1 mg/ml solution of 3-[4,5-dimethylthiaol-2-yl]-2,5-diphenyltetrazolium bromide (MTT) at 37° C. for 3 h and lysed in 150 μl of dimethyl sulfoxide at room temperature for 30 min. The absorbance of each well was measured at 580 nm in a microplate reader. The survival percentage of cells was calculated as the ratio between cells with drug treatment and cells without drug treatment.

[4] = test system: stable CUDR transfectant of A431 cells; test: DNA fragmentation assay (apoptotic response) in stable CUDR transfectants of A431 cells; type: cell-based, human; settings: CUDR transfectants versus A431 cells transfected with empty vector; drug for 3 days; FIGS. 5B and 5D
Description: as §1
DNA fragmentation assay, one of the common methods, was conducted to assess the apoptotic response of cells upon treatment with anticancer drug. The cells were seeded in 60 mm Petri dish for 2 days and then exposed to various concentrations of DOX or Taxol for 3 days. After incubation, the cells were lysed in lysis buffer containing Tris-HCl, SDS, EDTA and protease K and incubated at 45° C. for 2 h. After phenol/chloroform extraction, DNA was precipitated with sodium acetate and 100% ethanol. After overnight digestion with RNase A at 37° C., 40 μg of the DNA sample were separated on 1.5% EtBr staining agarose gel. The DNA fragmentation pattern was viewed with UV light box. The presence of the “DNA laddering” pattern indicates the induction of apoptosis in cells; the more extensive the laddering pattern, the more significant the apoptosis induction. AN: control cells, A431 cells transfected with an empty vector; AG: stable CUDR transfectant of A431 cells; and M: 100 bp marker.

Row | Compound | effect of transfection on doxorubicin sensitivity of cells (cell survival) ([1]; FIG. 4) | effect of transfection on doxorubicin sensitivity of cells (cell survival) ([1]; FIG. 4, listed as antisense CUDR nucleic acids) | response of cells to drug (percentage of cell survival) [2] | response of cells to drug (survival percentage of cells) [3] | apoptotic response of cells upon drug treatment (DNA laddering) [4]
1 | antisense CUDR oligonucleotides: Antisense sequence for CUDR: 5′-CAAGGTGCCAGTTAGCGTAT-3′ (nt1347-1367) (SEQ ID NO:9) (listed as DNA, chemistry not given here) | increased the DOX sensitivity of cells | increase the drug sensitivity of cancer cells | – | – | –
2 | COc1cccc2c1C(=O)c1c(O)c3c(c(O)c1C2=O)C[C@@](O)(C(=O)CO)C[C@@H]3O[C@H]1C[C@H](N)[C@H](O)[C@H](C)O1 [DOX, doxorubicin] | – | – | more resistant | more resistant | more refractory to the apoptosis
3 | CC(=O)O[C@H]1C(=O)[C@@]2(C)[C@H]([C@H](OC(=O)c3ccccc3)[C@]3(O)C[C@H](OC(=O)[C@H](O)[C@@H](NC(=O)c4ccccc4)c4ccccc4)C(C)=C1C3(C)C)[C@]1(OC(C)=O)CO[C@@H]1C[C@@H]2O [Taxol] | – | – | more resistant | – | more refractory to the apoptosis
